Assay results as given in the NIST ThermoML archive (doi:10.1021/je201009c).

Test: refractive index (Na D-line) (dimensionless); xn = mol fraction of the nth substance listed
Conditions: 100.8 kPa, Liquid, Standard Abbe refractometry

OCc1ccccc1 [benzenemethanol] + CCO
refractive index
Conditions | 293.15 K | 303.15 K | 313.15 K | 323.15 K
x2 = 0 | 1.54049 | 1.53635 | 1.53215 | 1.52796
x2 = 0.05 | 1.53607 | 1.53175 | 1.52743 | 1.52308
x2 = 0.1 | 1.53119 | 1.52681 | 1.5225 | 1.51807
x2 = 0.1504 | 1.52584 | 1.5215 | 1.51718 | 1.51273
x2 = 0.1999 | 1.52041 | 1.51591 | 1.51156 | 1.50721
x2 = 0.2502 | 1.51444 | 1.51002 | 1.5056 | 1.50123
x2 = 0.3003 | 1.50804 | 1.50367 | 1.49935 | 1.49494
x2 = 0.3499 | 1.50154 | 1.49716 | 1.49265 | 1.48825
x2 = 0.3998 | 1.49454 | 1.49014 | 1.48568 | 1.48127
x2 = 0.45 | 1.48707 | 1.4826 | 1.47818 | 1.47378
x2 = 0.5001 | 1.4791 | 1.47469 | 1.4703 | 1.46589
x2 = 0.55 | 1.47074 | 1.46632 | 1.46191 | 1.45755
x2 = 0.5999 | 1.46176 | 1.45731 | 1.45296 | 1.44855
x2 = 0.65 | 1.4522 | 1.4477 | 1.44333 | 1.43892
x2 = 0.6997 | 1.44199 | 1.43754 | 1.43309 | 1.4287
x2 = 0.75 | 1.43095 | 1.42651 | 1.42212 | 1.41775
x2 = 0.7999 | 1.41922 | 1.41479 | 1.4104 | 1.40607
x2 = 0.8496 | 1.40661 | 1.40202 | 1.39761 | 1.39329
x2 = 0.8998 | 1.39275 | 1.38825 | 1.38389 | 1.37963
x2 = 0.95 | 1.37776 | 1.37331 | 1.36905 | 1.36475
